ChEMBL document CHEMBL3885861, “Open TG-GATES”

Species on record: Rattus norvegicus
Test: Open TG-GATES - Regimen: Single
Type: toxicity, organism-based, Sprague-Dawley
Parameters: regimen Single, gender Male, age 6 weeks
Conditions: in vivo, po, 45 mg/kg, route gavage, dose level Low; for APTT / Bas / Eos / Fbg / Hb / Ht / Lym / MCH / MCHC / MCV / Mono / Neu / PT / Plat / RBC / Ret / WBC: tissue Blood; for KIDNEY_L / KIDNEY_R / KIDNEY_TOTAL: tissue Kidney; for LIVER: tissue Liver; for ALP / ALT / AST / BUN / CRE / DBIL / GLC / K / LDH / Na / PL / RALB / TBIL / TC / TG / TP / gamma-GTP: tissue Plasma

## CC(CCc1ccccc1)NCC(O)c1ccc(O)c(C(N)=O)c1 (stereo unspecified) [LABETALOL]
3 h
  TERMINAL_BW: 214.4 g
  APTT: 16 s
  Bas: 0%
  Eos: 1%
  Fbg: 265.8 mg/dL
  Hb: 13 g/dL
  Ht: 38.2%
  Lym: 78.2%
  MCH: 22.2 pg
  MCHC: 33.9%
  MCV: 65.5 fL
  Mono: 3.2%
  Neu: 16.6%
  PT: 13.1 s
  Plat: 103.6 x10_4/uL
  RBC: 584 x10_4/ul
  Ret: 8.6%
  WBC: 63.4 x10_2/uL
  KIDNEY_L: 0.9 g
  KIDNEY_R: 0.9 g
  KIDNEY_TOTAL: 1.8 g
  LIVER: 9.7 g
  ALP: 1420.4 IU/L
  ALT: 42.2 IU/L
  AST: 70.8 IU/L
  BUN: 11.6 mg/dL
  CRE: 0.2 mg/dL
  DBIL: 0.014 mg/dL
  GLC: 190.2 mg/dL
  K: 3.8 meq/L
  LDH: 56.2 IU/L
  Na: 143 meq/L
  PL: 147.4 mg/dL
  RALB: 2.6 g/dL
  TBIL: 0.044 mg/dL
  TC: 83.6 mg/dL
  TG: 60.4 mg/dL
  TP: 5.4 g/dL
  gamma-GTP: 1 IU/L
6 h
  TERMINAL_BW: 214.9 g
  APTT: 16.1 s
  Bas: 0%
  Eos: 1%
  Fbg: 287.6 mg/dL
  Hb: 12.8 g/dL
  Ht: 37.8%
  Lym: 75.6%
  MCH: 21.4 pg
  MCHC: 33.8%
  MCV: 63.3 fL
  Mono: 2.4%
  Neu: 20.6%
  PT: 13.1 s
  Plat: 116.3 x10_4/uL
  RBC: 596.4 x10_4/ul
  Ret: 8.2%
  WBC: 76.9 x10_2/uL
  KIDNEY_L: 0.9 g
  KIDNEY_R: 0.9 g
  KIDNEY_TOTAL: 1.9 g
  LIVER: 8.9 g
  ALP: 1402 IU/L
  ALT: 40.2 IU/L
  AST: 73 IU/L
  BUN: 9.6 mg/dL
  CRE: 0.2 mg/dL
  DBIL: 0.01 mg/dL
  GLC: 180.4 mg/dL
  K: 3.9 meq/L
  LDH: 46 IU/L
  Na: 142.8 meq/L
  PL: 135.8 mg/dL
  RALB: 2.5 g/dL
  TBIL: 0.038 mg/dL
  TC: 82.4 mg/dL
  TG: 50.6 mg/dL
  TP: 5.4 g/dL
  gamma-GTP: 1.2 IU/L
9 h
  TERMINAL_BW: 212.6 g
  APTT: 16.8 s
  Bas: 0%
  Eos: 1%
  Fbg: 293.4 mg/dL
  Hb: 12.9 g/dL
  Ht: 38.5%
  Lym: 79.4%
  MCH: 21.3 pg
  MCHC: 33.7%
  MCV: 63.3 fL
  Mono: 1.8%
  Neu: 17.2%
  PT: 13.3 s
  Plat: 106.4 x10_4/uL
  RBC: 608.2 x10_4/ul
  Ret: 8.2%
  WBC: 70.4 x10_2/uL
  KIDNEY_L: 0.9 g
  KIDNEY_R: 0.9 g
  KIDNEY_TOTAL: 1.9 g
  LIVER: 8.1 g
  ALP: 1452.8 IU/L
  ALT: 43.6 IU/L
  AST: 69 IU/L
  BUN: 9.6 mg/dL
  CRE: 0.2 mg/dL
  DBIL: 0.008 mg/dL
  GLC: 184.2 mg/dL
  K: 3.9 meq/L
  LDH: 46.2 IU/L
  Na: 143.6 meq/L
  PL: 136 mg/dL
  RALB: 2.5 g/dL
  TBIL: 0.038 mg/dL
  TC: 81.8 mg/dL
  TG: 39.6 mg/dL
  TP: 5.3 g/dL
  gamma-GTP: 1 IU/L
24 h
  TERMINAL_BW: 226.1 g
  APTT: 16.2 s
  Bas: 0%
  Eos: 1.2%
  Fbg: 284.4 mg/dL
  Hb: 13.5 g/dL
  Ht: 39.1%
  Lym: 78%
  MCH: 21.9 pg
  MCHC: 34.6%
  MCV: 63.3 fL
  Mono: 2.8%
  Neu: 17.6%
  PT: 12.8 s
  Plat: 112.9 x10_4/uL
  RBC: 618.6 x10_4/ul
  Ret: 8.2%
  WBC: 80.8 x10_2/uL
  KIDNEY_L: 1 g
  KIDNEY_R: 1 g
  KIDNEY_TOTAL: 1.9 g
  LIVER: 10.4 g
  ALP: 1933.8 IU/L
  ALT: 53.2 IU/L
  AST: 82.2 IU/L
  BUN: 14.8 mg/dL
  CRE: 0.2 mg/dL
  DBIL: 0.018 mg/dL
  GLC: 181.8 mg/dL
  K: 4.1 meq/L
  LDH: 87.4 IU/L
  Na: 142 meq/L
  PL: 150.8 mg/dL
  RALB: 2.7 g/dL
  TBIL: 0.032 mg/dL
  TC: 81.8 mg/dL
  TG: 119 mg/dL
  TP: 5.7 g/dL
  gamma-GTP: 1.2 IU/L
